# Columns and labels:
# [1] = tested on: patients with advanced or metastatic solid tumors; assay: Trial 1403-0001 dose finding: MTD/RDE, BLRM analysis with overdose control (EWOC); format: in vivo; settings: for N of evaluable patients with events of interests: all cycles
# Excerpt: Preliminary pharmacokinetic (PK) data were also used as supportive information for the dose decision.
# SJSA-1 xenograft = assay: Mouse SJSA-1 xenograft experiment: minimum effective AUC; format: in vivo; settings: QW
# Description: Preliminary pharmacokinetic (PK) data were used as supportive information for the dose decision. The human therapeutic dose was predicted based on a minimum effective AUC0-168 of 30,700 nM*h (QW), which was determined in a mouse SJSA-1 xenograft experiment. For this, the difference in plasma protein binding between human and mouse was taken into account, which translated to an effective AUC0-168 of 11,350 nM*h for QW dosing in humans. The human therapeutic dose was predicted to be 64 mg (free acid) with QW dosing.
# [2] = tested on: patients with advanced or metastatic solid tumors; assay: Trial 1403-0001 Phase Ia dose escalation, Arm A (D1 q3w): adverse events; format: in vivo
# Excerpt: Trial 1403-0001 was a first in human Phase Ia/Ib, open label, multicenter, dose-escalation study of the MDM2-antagonist of formula I in patients with advanced or metastatic solid tumors. The Phase Ia dose escalation part aimed to define the Maximum Tolerated Dose (MTD) and the Recommended Dose for Expansion (RDE) for the MDM2-antagonist of formula I based on safety and tolerability, pharmacokinetics, pharmacodynamics, and preliminary efficacy. The RDE will be further explored in the Phase Ib expansion part of the trial.
# Fifty-four patients had been treated with the MDM2-antagonist of formula I in the Phase Ia dose escalation part of clinical trial 1403-0001. Twenty-nine patients were treated in Arm A (dosing regimen: dosing on Day 1 of a 21 days-cycle, D1 q3w) and twenty-five patients were treated in Arm B (dosing regimen: dosing on Day 1 and on Day 8 of a 28 days-cycle, D1 D8 q4w). Dose levels evaluated in Arm A were 10, 20, 30, 45, 50, 60, and 80 mg. Dose levels evaluated in Arm B (referring to the dose administered on Day 1 and Day 8) were 5, 10, 15, 20, 30, 45, and 60 mg.
# During the on-treatment period, all 29 patients were reported with adverse events (AEs). […] A total of 27 patients (93.1%) were reported with at least 1 AE judged to be related to the MDM2-antagonist of formula I by investigators.
# tumors = assay: Trial 1403-0002 combination with ezabenlimab (and anti-LAG3-1): tumor response; format: in vivo, human
# [3] = triple combination (11 treated)
smiles,measurement,setting,value
"Cc1c(C(=O)O)ccc2c3n(nc12)[C@@H]1[C@H](C3)N(CC2CC2)[C@@]2(C(=O)Nc3cc(Cl)ccc32)[C@H]1c1cccc(Cl)c1F [MDM2-antagonist of formula I, (2′S,3′S,3a'S,10a'S)-6-chloro-3′-(3-chloro-2-fluorophenyl)-1′-(cyclopropylmethyl)-6′-methyl-2-oxo-1,2,3′,3a′,10′,10a′-hexahydro-1′H-spiro[indole-3,2′-pyrrolo[2′,3′:4,5]pyrrolo[1,2-b]indazole]-7′-carboxylic acid]",N of evaluable patients with events of interests,"[1]; Arm A, 10 mg (1 evaluable)",1
same,N of evaluable patients with events of interests,"[1]; Arm A, 20 mg (2 evaluable)",1
same,N of evaluable patients with events of interests,"[1]; Arm A, 30 mg (3 evaluable)",1
same,N of evaluable patients with events of interests,"[1]; Arm A, 45 mg (6 evaluable)",1
same,N of evaluable patients with events of interests,"[1]; Arm A, 50 mg (4 evaluable)",1
same,N of evaluable patients with events of interests,"[1]; Arm A, 60 mg (7 evaluable)",2
same,N of evaluable patients with events of interests,"[1]; Arm A, 80 mg (6 evaluable)",5
same,highest dose level that fulfilled the EWOC criterion from the additional BLRM analysis,"[1]; Arm A, events of interest during the entire treatment period",45 mg
same,Maximum Tolerated Dose (MTD),"[1]; monotherapy, Arm A D1 q3w",60 mg
same,Recommended Dose for Expansion (RDE),"[1]; monotherapy, Arm A D1 q3w",45 mg
same,Maximum Tolerated Dose (MTD),"[1]; monotherapy, Arm B D1 D8 q4w",45 mg
same,minimum effective AUC0-168,SJSA-1 xenograft,"30,700 nM*h"
same,"Serious AEs: Results in Death, %","[2]; Arm A D1 q3w, 10 mg",0%
same,"Subjects with maximum CTC Grade 5, %","[2]; Arm A D1 q3w, 10 mg",0%
same,"Serious AEs: Results in Death, %","[2]; Arm A D1 q3w, 20 mg",0%
same,"Subjects with maximum CTC Grade 5, %","[2]; Arm A D1 q3w, 20 mg",0%
same,"Serious AEs: Results in Death, %","[2]; Arm A D1 q3w, 30 mg",0%
same,"Subjects with AEs leading to dose reduction of trial drug, %","[2]; Arm A D1 q3w, 30 mg",33.3%
same,"Subjects with maximum CTC Grade 2, %","[2]; Arm A D1 q3w, 30 mg",33.3%
same,"Subjects with maximum CTC Grade 3, %","[2]; Arm A D1 q3w, 30 mg",66.7%
same,"Subjects with maximum CTC Grade 5, %","[2]; Arm A D1 q3w, 30 mg",0%
same,"Patients with Dose limiting toxicity, %","[2]; Arm A D1 q3w, 45 mg",33.3%
same,"Serious AEs: Results in Death, %","[2]; Arm A D1 q3w, 45 mg",0%
same,"Subjects with AEs leading to dose reduction of trial drug, %","[2]; Arm A D1 q3w, 45 mg",33.3%
same,"Subjects with maximum CTC Grade 3, %","[2]; Arm A D1 q3w, 45 mg",33.3%
same,"Subjects with maximum CTC Grade 5, %","[2]; Arm A D1 q3w, 45 mg",0%
same,"Serious AEs: Results in Death, %","[2]; Arm A D1 q3w, 50 mg",0%
same,"Subjects with maximum CTC Grade 5, %","[2]; Arm A D1 q3w, 50 mg",0%
same,"Serious AEs: Results in Death, %","[2]; Arm A D1 q3w, 60 mg",0%
same,"Subjects with maximum CTC Grade 3, %","[2]; Arm A D1 q3w, 60 mg",71.4%
same,"Subjects with maximum CTC Grade 5, %","[2]; Arm A D1 q3w, 60 mg",0%
same,"Patients with Dose limiting toxicity, %","[2]; Arm A D1 q3w, 80 mg",66.7%
same,"Serious AEs: Requires or Prolongs Hospitalization, %","[2]; Arm A D1 q3w, 80 mg",33.3%
same,"Serious AEs: Results in Death, %","[2]; Arm A D1 q3w, 80 mg",0%
same,"Subjects with maximum CTC Grade 2, %","[2]; Arm A D1 q3w, 80 mg",33.3%
same,"Subjects with maximum CTC Grade 4, %","[2]; Arm A D1 q3w, 80 mg",66.7%
same,"Subjects with maximum CTC Grade 5, %","[2]; Arm A D1 q3w, 80 mg",0%
same,"Subjects with serious AEs, %","[2]; Arm A D1 q3w, 80 mg",33.3%
same,"Serious AEs: Requires or Prolongs Hospitalization, %","[2]; Arm A D1 q3w, Total",31.0%
same,"Serious AEs: Results in Death, %","[2]; Arm A D1 q3w, Total",0%
same,"Subjects with AEs leading to Discontinuation of trial drug, %","[2]; Arm A D1 q3w, Total",6.9%
same,"Subjects with maximum CTC Grade 5, %","[2]; Arm A D1 q3w, Total",0%
same,"drug-related AE diarrhea, patients","[2]; Arm A, all 29 patients",27.6%
same,"drug-related AE fatigue, patients","[2]; Arm A, all 29 patients",41.1%
same,"drug-related AE nausea, patients","[2]; Arm A, all 29 patients",72.4%
same,"drug-related AE platelet count decreased, patients","[2]; Arm A, all 29 patients",37.9%
same,"drug-related AE vomiting, patients","[2]; Arm A, all 29 patients",41.1%
same,"drug-related AE white blood cell count decreased, patients","[2]; Arm A, all 29 patients",27.6%
same,fatal AEs,"[2]; Arm A, all 29 patients",No fatal AEs were reported
same,patients with DLTs during the MTD evaluation period (cycle 1),"[2]; Arm A, all 29 patients",17.2%
same,"AE anemia, patients","[2]; human, in vivo",41.4%
same,"AE back pain, patients","[2]; human, in vivo",20.7%
same,"AE decreased appetite, patients","[2]; human, in vivo",41.4%
same,"AE diarrhea, patients","[2]; human, in vivo",34.5%
same,"AE fatigue, patients","[2]; human, in vivo",51.7%
same,"AE nausea, patients","[2]; human, in vivo",82.8%
same,"AE platelet count decreased, patients","[2]; human, in vivo",37.9%
same,"AE vomiting, patients","[2]; human, in vivo",48.3%
same,"AEs leading to Discontinuation: Other adverse event, %","[2]; human, in vivo",3.4%
same,"Grade 3 AE platelet count decreased, patients","[2]; human, in vivo",13.8%
same,"Grade 4 AE neutrophil count decreased, patients","[2]; human, in vivo",10.3%
same,"SAE platelet count decreased, patients","[2]; human, in vivo",6.9%
same,"Serious AEs: Cogenital Anomaly or Birth Defect, %","[2]; human, in vivo",0%
same,"Serious AEs: Is Life Threatening, %","[2]; human, in vivo",0%
same,"Serious AEs: Other Medically Important Serious Event, %","[2]; human, in vivo",3.4%
same,"Serious AEs: Persists of Signif. Disability/Incapacity, %","[2]; human, in vivo",0%
same,"Subjects with any AE, %","[2]; human, in vivo",100%
same,"Subjects with investigator defined drug-related AEs, %","[2]; human, in vivo",93.1%
same,"Subjects with maximum CTC Grade 1, %","[2]; human, in vivo",3.4%
same,"Subjects with maximum CTC Grade 2, %","[2]; human, in vivo",27.6%
same,"Subjects with maximum CTC Grade 3, %","[2]; human, in vivo",51.7%
same,"Subjects with maximum CTC Grade 4, %","[2]; human, in vivo",17.2%
same,"Subjects with serious AEs, %","[2]; human, in vivo",31.0%
same,"dose reduction due to enterocolitis, patients","[2]; human, in vivo",3.4%
same,"dose reduction due to nausea, patients","[2]; human, in vivo",6.9%
same,"dose reduction due to neutropenia and/or thrombocytopenia, patients","[2]; human, in vivo",20.7%
same,"drug-related AE anemia, patients","[2]; human, in vivo",24.1%
same,"drug-related AE decreased appetite, patients","[2]; human, in vivo",34.5%
same,patients with confirmed partial response (PR),"tumors; double combination with 240 mg ezabenlimab D1 q3w, nine evaluable patients",four
same,patients with confirmed partial response (PR),"tumors; double combination, 30 mg + 240 mg ezabenlimab D1 q3w",one
same,patients with unconfirmed PR,"tumors; double combination, 30 mg + 240 mg ezabenlimab D1 q3w, adenocarcinoma",one
same,patients with confirmed partial response (PR),"tumors; double combination, 45 mg + 240 mg ezabenlimab D1 q3w",three
same,patients with stable disease,"tumors; double combination, nine evaluable patients",Four
same,"Confirmed partial response, % of patients",tumors; [3],(9.1) %
same,"Confirmed partial response, number of patients",tumors; [3],1
same,"Disease control, % of patients",tumors; [3],(72.5) %
same,"Disease control, number of patients",tumors; [3],8
same,"Progressive disease, % of patients",tumors; [3],(18.2) %
same,"Progressive disease, number of patients",tumors; [3],2
same,"Stable disease, number of patients",tumors; [3],7
same,"Unconfirmed partial response, % of patients",tumors; [3],(9.1) %
same,"Unconfirmed partial response, number of patients",tumors; [3],1
same,"Partial Responses (PRs), number","tumors; triple combination, MDM2-amplified liposarcoma and MDM2-amplified urothelial carcinoma patient",2

# Source: patent publication US20230058171A1, “NEW ORAL PHARMACEUTICAL COMPOSITION FOR CANCER THERAPY” (BOEHRINGER INGELHEIM INTERNATIONAL GMBH, priority 2021, published 2023)
